PMC4278708, “A Convenient Method for the Synthesis of (Prop-2-Ynyloxy)Benzene Derivatives via Reaction with Propargyl Bromide, Their Optimization, Scope and Biological Evaluation” (PLoS ONE, 2014)
Values after ≈ are worked out from the molar mass of the structure shown.

Assays:
urease enzyme = urease enzyme (Canavalia ensiformis, UniProt P07374); assay: biochemical; assay type: biochemical; details: for inhibition at 50 µg/mL: read-out: Percentage inhibition at 50 ug/mL; for inhibition at 100 µg/mL: read-out: Percentage inhibition at 100 ug/mL
Sequence of urease enzyme (P07374 whole entry, looked up): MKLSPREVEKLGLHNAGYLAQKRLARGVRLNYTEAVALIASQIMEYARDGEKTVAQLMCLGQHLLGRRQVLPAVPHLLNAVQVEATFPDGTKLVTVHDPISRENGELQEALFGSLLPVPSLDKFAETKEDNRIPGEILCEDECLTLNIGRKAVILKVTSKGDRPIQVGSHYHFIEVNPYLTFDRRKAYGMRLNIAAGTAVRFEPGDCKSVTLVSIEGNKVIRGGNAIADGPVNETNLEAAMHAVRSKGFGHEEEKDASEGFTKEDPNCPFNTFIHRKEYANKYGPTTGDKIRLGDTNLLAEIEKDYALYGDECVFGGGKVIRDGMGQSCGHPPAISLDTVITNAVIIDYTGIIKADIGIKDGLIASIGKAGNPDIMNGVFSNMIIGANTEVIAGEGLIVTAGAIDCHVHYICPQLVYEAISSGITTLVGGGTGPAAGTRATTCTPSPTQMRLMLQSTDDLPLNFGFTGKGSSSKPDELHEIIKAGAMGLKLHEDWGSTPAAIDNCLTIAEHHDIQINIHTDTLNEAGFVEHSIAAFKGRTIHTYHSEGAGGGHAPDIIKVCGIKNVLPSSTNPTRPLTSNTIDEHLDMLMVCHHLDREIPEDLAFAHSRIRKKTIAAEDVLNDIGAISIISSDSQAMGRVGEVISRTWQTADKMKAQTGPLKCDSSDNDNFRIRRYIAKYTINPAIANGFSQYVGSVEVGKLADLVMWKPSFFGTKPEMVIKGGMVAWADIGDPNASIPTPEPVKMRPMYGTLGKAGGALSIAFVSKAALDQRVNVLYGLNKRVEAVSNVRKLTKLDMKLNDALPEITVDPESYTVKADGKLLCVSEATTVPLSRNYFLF
Method: Antiurease activity of the synthesized compounds was determined by using the modified phenol-hypochlorite method. Varying concentrations were used to prepare the urease inhibition curve of Thiourea (a known inhibitor of Urease) in the reaction mixture. Phosphate buffer solution of pH 7 containing 1 unit of enzyme was added about 200 µl in the test tube which was followed by the addition of 230 µl of phosphate buffer and 20 µl of thiourea from a scrupulous stock solution for the particular concentration of thiourea in the reaction mixture respectively. Test sample solutions were added instead of thiourea solution in case of test samples. The reaction mixture were mixed and incubated at 25°C for 5 min. 400 µl of urea stock (20 mM) was added in each test tube. In order to allow the action of urease on urea, all the test tubes were incubated at 40°C.
Phenol hypochlorite reagent (1150 µl) was added after 10 min incubation at 40°C. Test tubes were again incubated at 56°C for 25 min. A blue coloured complex was formed in the reaction mixture. The samples were allowed to cool for 5 min and then their absorbance values were measured at 625 nm and the %age inhibition was calculated. Experiment was repeated three times to get the SD values.

[1] = Nitric oxide (NO) scavenging activity (sodium nitropruside / Griess reagent); details: for Percentage scavenging activity at 50 ug/ml / Percentage scavenging activity at 100 ug/ml: NO; for IC50: NO scavenging
Method: Solutions of known concentration were prepared by dissolving the synthesized compounds in appropriate solvents. A mixture of sample solution (20 µl), 10 mM sodium nitropruside solution (200 µl) and phosphate buffer of 7.4 pH (1780 µl) was taken in a dry test tube and the mixture was incubated at 37°C for 2 hours. 200 µl Griess reagent (0.3% Sulphanilic acid in glacial acetic acid, 0.1% Naphthyl ethylene diamine HCL (NED): Mixed equal volume of both solutions just before use) was added after the incubation period is over. After 20 min keeping the solution at room temperature, its absorbance at 528 nm was measured. Each sample was analyzed in triplicate. Positive control of any known antioxidant and control of all samples were run in parallel. Use of negative control was to calibrate the instrument. Sample blanks were also prepared in case if the samples were coloured. Correction in the absorbance values was made by subtracting the sample blank reading from the sample reading.

Bacillus subtillus = assay: Antibacterial activity, disc diffusion method; assay type: cell-based; details: for inhibition at 100 µg/mL / IC50: Bacillus; for inhibition at 100 µg/mL: 100 ug/ml, read-out: Bacillus subtillus 100 ug/ml (percentage inhibition); for IC50: read-out: Bacillus subtillus IC50 ug/ml
Source text: (§1) Disc diffusion method was adopted to test the antibacterial activity of synthesized compounds 2a-10 against […] different bacterial strains. Ampiciline was used as positive control to check antibacterial activity of synthesized compounds. The bacterial strains employed were: Escherichia coli, Bacillus subtillus, Shigella flexneri, Staphylococcus aureus, Pseudomonas aeroginosa and Salmonella typhi.
(§2) Disc diffusion method was used for the determination of antibacterial activity. synthetic organic compounds were examined to evaluate their antibacterial potential against four different strains of bacteria i.e. Staphlococcus aureus (Gram + ive), Pseudomonas- aeroginosa (Gram−ive) and Escherichia coli (Gram−ive), Bacillus subtilis (Gram + ive), Salmonella typhi (Gram−ive) and Shigella flexneri (−ive). The synthetic organic compounds were dissolved in an appropriate solvent to get the solution of known concentration (5 µg/µl or 10 µg/µl). In order to prepare discs of different potencies known volume of extract/synthetic organic compound solution was applied on the discs, air dried and used. After preparation of the sterilized nutrient agar and nutrient broth medium, the sterilized nutrient agar medium was poured under aseptic conditions into sterile glass petri dishes/plates. A known volume of bacterial growth culture can also be poured on the surface of agar medium solidified in petri dishes. After inoculation petri plates were kept at room temperature for 15–30 minutes so that the poured medium is adsorbed. All the discs, including test sample, +ive and –ve controls were placed onto the inoculated nutrient agar medium solidified in petri dishes with the help of sterile forceps and incubated the petri plates at 37°C±2°C for 16–24 hours. Zone of inhibition was measured in mm using ordinary scale. Experiment was repeated three times to get the SD values.

Staphylococcus aureus = assay: Antibacterial activity, disc diffusion method; assay type: cell-based; details: for inhibition at 40 µg/mL: read-out: Staphylococcus aureus 40 ug/ml (percentage inhibition); for inhibition at 100 µg/mL: read-out: Staphylococcus aureus 100 ug/ml (percentage inhibition)
Source text: as §1, §2

| Structure (SMILES) | IC50 (urease enzyme) | inhibition at 50 µg/mL (urease enzyme) | inhibition at 100 µg/mL (urease enzyme) | nitric oxide scavenging activity (in words) [1] | Percentage scavenging activity at 50 ug/ml [1] | Percentage scavenging activity at 100 ug/ml [1] | activity against Bacillus subtillus (in words) (Bacillus subtillus) | inhibition at 100 µg/mL (Bacillus subtillus) | IC50 (Bacillus subtillus) | activity against Staphylococcus aureus (in words) (Staphylococcus aureus) | inhibition at 40 µg/mL (Staphylococcus aureus; Staphylococcus aureus) | inhibition at 100 µg/mL (Staphylococcus aureus; Staphylococcus aureus) | melting point | IC50 [1] | IC50 (Staphylococcus aureus; Staphylococcus aureus, read-out: Staphylococcus aureus IC50 ug/ml) | urease inhibition activity (in words) (urease enzyme; 50 and 100 µg/ml tested) |
| --- | --- | --- | --- | --- | --- | --- | --- | --- | --- | --- | --- | --- | --- | --- | --- | --- |
| C#CCOc1ccc([N+](=O)[O-])cc1 [Compound 2f, 1-nitro-4-(prop-2-ynyloxy)benzene] | 360 µM | 44 ± 0.43% | 65.8 ± 0.18% | did not show any significant results | 32±0.10% | 47.01±0.27% | batter activity | 57.9 ± 0.25% | 87.5 µg/mL (≈ 494 µM) | inactive | 18.7 ± 0.3% | 39 ± 0.4% | 129 °C | – | – | – |
| C#CCOc1ccc(S(=O)(=O)c2ccc(OCC#C)cc2)cc1 [Compound 4b, 4,4′-sulfonylbis((prop-2-ynyloxy)benzene)] | 217 µM | 32 ± 0.28% | 74.9 ± 0.13% | – | 15.33±0.12% | 59±0.15% | – | 50.9 ± 0.34% | 97.6 µg/mL (≈ 299 µM) | moderate activity | 26.9 ± 0.35% | 53 ± 0.7% | 136 °C | 89.6 µg/mL (≈ 275 µM) | 94.2 µg/mL (≈ 289 µM) | – |
| C#CCNc1ccc(Br)c(C)c1 [Compound 8c, 4-bromo-3-methyl-N-(prop-2-ynyl)aniline] | – | 32 ± 0.38% | 45.26 ± 0.295% | – | 33.66±0.09% | 62.8±0.19% | – | 36 ± 0.39% | – | – | 15.9 ± 0.69% | 35 ± 0.2% | 40.85 °C | 78 µg/mL (≈ 348 µM) | – | did not show any satisfactory results |
